Results taken from PubChem BioAssay (NCI).
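1) Cells in 96-well plates. 2) Compound, 48 h, 5 concentrations. 3) Linear interpolation between surrounding doses. 4) Unreached endpoint = highest concentration. GI50 is the concentration that inhibits growth by half. TGI: total growth inhibition.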

Experiments:
Assay in all cases: inhibition of tumour cell growth, NCI panel, 48 h
SNB-78 CNS = test system: SNB-78 CNS
LXFL 529 NSCLC = test system: LXFL 529 NSCLC
PC-3 prostate = test system: PC-3 prostate
T-47D breast = test system: T-47D breast
RXF-631 renal = test system: RXF-631 renal
MDA-N = test system: MDA-N
DMS 273 small cell lung = test system: DMS 273 small cell lung
HOP-18 NSCLC = test system: HOP-18 NSCLC

O=C([O-])c1ccccc1Nc1ccccn1.O=C([O-])c1ccccc1Nc1ccccn1.[Ni+2]
GI50 (SNB-78 CNS): 91.8 µM
TGI (SNB-78 CNS): > 100 µM
GI50 (LXFL 529 NSCLC): 55.2 µM
TGI (LXFL 529 NSCLC): > 100 µM

CN1CCN(CCc2cccc(C(=O)c3cnn(-c4ccc(F)cc4)c3N)c2)CC1
GI50 (PC-3 prostate): > 25 µM
TGI (PC-3 prostate): > 25 µM
GI50 (T-47D breast): > 25 µM
TGI (T-47D breast): > 25 µM

C[C@H](Nc1ncnc2nc[nH]c12)c1cc2cccc(Cl)c2c(=O)n1-c1ccccc1
GI50 (PC-3 prostate): 2.39 µM
TGI (PC-3 prostate): > 100 µM
GI50 (T-47D breast): 1.58 µM
TGI (T-47D breast): > 43.5 µM

COc1ccc(N2C(C)=C(C#N)C34C(=O)N(c5ccccc5)C(=O)C3=C(O)C=CC24O)cc1 (centres undefined)
GI50 (PC-3 prostate): 17.1 µM
TGI (PC-3 prostate): 62.5 µM
GI50 (T-47D breast): 13 µM
TGI (T-47D breast): 33.8 µM

CCN(CC)c1ccc(C(=C2C=CC(=[N+](CC)Cc3cccc(S(=O)(=O)O)c3)C=C2)c2ccc(N(CC)Cc3cccc(S(=O)(=O)O)c3)cc2)cc1
GI50 (PC-3 prostate): 6.87 µM
TGI (PC-3 prostate): > 66.3 µM
GI50 (T-47D breast): 3.14 µM
TGI (T-47D breast): > 29.3 µM

CN(CCCN)CCCNc1nc2ccccc2c2[nH]c3ccccc3c12
GI50 (PC-3 prostate): 0.342 µM
TGI (PC-3 prostate): 1.28 µM
GI50 (T-47D breast): 0.283 µM
TGI (T-47D breast): 0.772 µM

C[N+](C)(C)CC(=O)N/N=C(/Cc1nc2c3c(ccc2[nH]c1=O)C(=O)c1ccccc1C3=O)C(=O)Nc1ccc(Cl)c(Cl)c1
TGI (RXF-631 renal): > 100 µM

CC(C)(C)C[C@H]1NC(C(=O)NCC[C@H](O)CO)[C@H](c2cccc(Cl)c2)[C@@]12C(=O)Nc1cc(Cl)c(F)cc12 (some centres undefined)
GI50 (PC-3 prostate): 14.9 µM
TGI (PC-3 prostate): 34.7 µM
GI50 (T-47D breast): 16.7 µM
TGI (T-47D breast): 37.7 µM

C=CCc1c2c(c(OC)c3ccoc13)C(=O)/C(=C/c1ccccc1OC)O2
GI50 (PC-3 prostate): 5.25 µM
TGI (PC-3 prostate): > 100 µM
GI50 (T-47D breast): 4.34 µM
TGI (T-47D breast): > 100 µM

ClCCn1c(CCl)nc2ccc(Cl)cc21
GI50 (PC-3 prostate): 1.58 µM
TGI (PC-3 prostate): 3.39 µM
GI50 (T-47D breast): 1.86 µM
TGI (T-47D breast): 4.19 µM

COC(=O)[C@]12CC[C@@H](C)[C@H](C)[C@@H]1C1=CC[C@@H]3[C@@]4(C)C[C@@H](OC(C)=O)[C@H](O)[C@@](C)(COC(C)=O)[C@@H]4[C@H](O)C[C@@]3(C)[C@]1(C)CC2
GI50 (PC-3 prostate): 1.86 µM
TGI (PC-3 prostate): 7.05 µM
GI50 (T-47D breast): 2.44 µM
TGI (T-47D breast): 8.02 µM

COC1(C(=O)N[C@@H](C)c2ccc(-n3cc(F)cn3)nc2)CCC(c2nc(C)cc(Nc3cc(C)[nH]n3)n2)CC1 (some centres undefined)
GI50 (PC-3 prostate): 3.66 µM
TGI (PC-3 prostate): 32.7 µM
GI50 (T-47D breast): 2.17 µM
TGI (T-47D breast): 21.7 µM

CCCC[C@H](NC(=O)[C@H]1CCCN1C)C(=O)N(C)[C@H](C[C@@H](OC(C)=O)c1nc(C(=O)N[C@@H](Cc2ccccc2)C[C@H](C)C(=O)OCC)cs1)C(C)C
GI50 (PC-3 prostate): 0.00957 µM
TGI (PC-3 prostate): > 33.3 µM

COc1c2c(c3c(c1CCC(=O)O)OC(C)(C)C=C3)OC(C)(C)C=C2
TGI (PC-3 prostate): > 100 µM
TGI (T-47D breast): > 100 µM
TGI (MDA-N): > 100 µM

Nc1c(C(=O)Nc2cccc([N+](=O)[O-])c2)sc2nc3c(cc12)C(O)CCC3 (centres undefined)
GI50 (T-47D breast): 6.59 µM
TGI (T-47D breast): > 100 µM

C1CCSCCCCSCCCCSCCCCSC1
TGI (PC-3 prostate): > 100 µM
TGI (T-47D breast): > 100 µM
TGI (MDA-N): > 100 µM

CN(C)/C=C/c1nnc([N+](=O)[O-])s1
TGI (PC-3 prostate): 22 µM
TGI (T-47D breast): 38.9 µM
TGI (MDA-N): 17.4 µM

COc1ccc2nc3cc([N+](=O)[O-])ccc3c(NCCCCCN(C)C)c2c1
TGI (PC-3 prostate): 1.75 µM
GI50 (T-47D breast): 0.307 µM
TGI (T-47D breast): 1.73 µM
GI50 (MDA-N): 0.438 µM
TGI (MDA-N): 1.57 µM

COc1cccc(NC(=O)CC(=O)N2N=C(N(CCC#N)c3ccc(Cl)cc3)CC2c2ccccc2)c1 (centres undefined)
TGI (DMS 273 small cell lung): > 100 µM
TGI (HOP-18 NSCLC): > 100 µM
TGI (SNB-78 CNS): > 100 µM
TGI (LXFL 529 NSCLC): > 100 µM

COC(=O)[C@H](Cc1cn(C)cn1)NC(=O)[C@H](Cc1c[nH]c2ccccc12)NC(=O)Nc1cc(C(F)(F)F)cc(C(F)(F)F)c1
GI50 (PC-3 prostate): > 10 µM
TGI (PC-3 prostate): > 10 µM
GI50 (T-47D breast): > 10 µM
TGI (T-47D breast): > 10 µM

COc1cc(Cl)cc(-c2nn(C(=O)NCCN3CCOCC3)cc2-c2ccncc2)c1
GI50 (PC-3 prostate): 4.24 µM
TGI (PC-3 prostate): > 100 µM
GI50 (T-47D breast): 5.78 µM
TGI (T-47D breast): > 100 µM

CC(=O)NNc1nc(C)c(C(=O)NNC(=O)C(=O)Nc2ccccc2C#N)s1
TGI (DMS 273 small cell lung): > 100 µM
TGI (HOP-18 NSCLC): > 100 µM
TGI (RXF-631 renal): > 100 µM
TGI (SNB-78 CNS): > 100 µM
TGI (LXFL 529 NSCLC): > 100 µM

Cc1ccc(S(=O)(=O)N2CCSCCSCCSCCSCC2)cc1
TGI (PC-3 prostate): > 100 µM
TGI (T-47D breast): 74.1 µM
TGI (MDA-N): > 100 µM

O=C1c2ccccc2-c2c1c1ccccc1c(=O)n2CCCNCCCNCCCn1c2c(c3ccccc3c1=O)C(=O)c1ccccc1-2
GI50 (PC-3 prostate): 0.0397 µM
TGI (PC-3 prostate): 0.142 µM
GI50 (T-47D breast): 1.64 µM
TGI (T-47D breast): 6.4 µM

O=C(Cn1ccc(=O)[nH]c1=O)Nc1ccc(C(=O)O)c(O)c1
TGI (PC-3 prostate): > 100 µM
TGI (T-47D breast): > 100 µM
TGI (MDA-N): > 100 µM

Cc1ccc(/C=C2\CN(C(=O)OC(C)(C)C)C/C(=C\c3ccc(C)cc3)C2=O)cc1
GI50 (PC-3 prostate): 0.452 µM
TGI (PC-3 prostate): > 100 µM
TGI (T-47D breast): > 100 µM

COc1cc2c(cc1OC)C(N(C)C)C(c1ccccc1)=C2Cl (centres undefined)
TGI (DMS 273 small cell lung): 30.9 µM
TGI (HOP-18 NSCLC): > 100 µM
TGI (RXF-631 renal): 30.5 µM

COc1ccc(C(=O)/C=C/c2ccc(/C=C/c3cc(OC)c(OC)c(OC)c3)cc2)cc1
GI50 (PC-3 prostate): 5.65 µM
TGI (PC-3 prostate): > 100 µM
GI50 (T-47D breast): 6.19 µM
TGI (T-47D breast): > 100 µM

COc1ccc(-c2ccc(/C=N/n3c(COc4ccc(Cl)cc4Cl)n[nH]c3=S)o2)c([N+](=O)[O-])c1
GI50 (PC-3 prostate): 19.4 µM
TGI (PC-3 prostate): 47.1 µM
GI50 (T-47D breast): 44 µM
TGI (T-47D breast): > 100 µM

O=C(CC(=O)CC(O)(C(F)(F)F)C(F)(F)F)CC(O)(C(F)(F)F)C(F)(F)F
TGI (T-47D breast): > 10 µM
TGI (MDA-N): > 10 µM

Cc1ccc2c(ccc3c[n+]4c5ccccc5ccc4n32)c1
GI50 (PC-3 prostate): 0.946 µM
TGI (PC-3 prostate): 10.4 µM
GI50 (T-47D breast): 0.618 µM
TGI (T-47D breast): 3.59 µM

NC(=S)N/N=C(/CC(=O)c1ccccc1)C(=O)Nc1ccc(Cl)c(Cl)c1
TGI (DMS 273 small cell lung): > 100 µM
TGI (HOP-18 NSCLC): > 100 µM
TGI (SNB-78 CNS): > 100 µM
TGI (LXFL 529 NSCLC): > 100 µM

CC(C)(C)C#CC1=C(Br)C(=O)OC1
GI50 (PC-3 prostate): 2.39 µM
TGI (PC-3 prostate): 11.2 µM
GI50 (T-47D breast): 16.5 µM
TGI (T-47D breast): 66.8 µM

Cc1ccc(C(=O)O/N=C2/CCC/C2=C\c2ccccc2)cc1
TGI (DMS 273 small cell lung): > 100 µM
TGI (HOP-18 NSCLC): > 100 µM
TGI (SNB-78 CNS): > 100 µM
TGI (LXFL 529 NSCLC): > 100 µM

CCN1C(=O)N(CC)C2C1NN=c1s/c(=C\c3cccnc3)c(=O)n12 (centres undefined)
GI50 (PC-3 prostate): 0.451 µM
TGI (PC-3 prostate): > 100 µM
